The values that follow are results of earlier work, collected in patent publication US20120282652A1, “PREPARATION OF PEPTIDE MIXTURES BY PROTEASE CATALYSIS DESIGNED TO PROVIDE USEFUL BIOLOGICAL AND PHYSICAL PROPERTIES” (priority 2011, published 2012).

Some results are limits rather than exact numbers.

For data set [1] the following is noted: Cheng et al.
In data set [2] the test system is S. aureus, E. coli, and P. aeruginosa. The following applies: peptide synthesized by traditional chemical methods.

As to [γ-Glu-Cys]2-Gly, the “Cd(II) at which binding saturated” value (absorbance at 240 nm, Mehra) is 0.5 equivalents. The “Cd(II)/peptide ratio up to which absorption intensity is enhanced” value (absorption at 250 nm, Kobayashi and Yoshimura) was at most 1.4.
[γ-Glu-Cys]4-Gly [[(γ-EC)4]-Gly]: in data set [1], the “order of binding efficiency of the metals” value was “Cd>Zn>Ni>Co”.
In the case of “LKLLKKLLKKLKKLLKKL [amphipathic model peptide synthesized by traditional chemical methods]”, in data set [2], the “antimicrobial activity compared with diblock KKKKKKKKKLLLLLLLLL or alternating KLKLKLKLKLKLKLKLKL” value was “better antimicrobial activity”.
